We go through three molecules from ChEMBL document CHEMBL1144134, “New biphenyl compounds with DNA strand-scission activity from Clusia paralicola” (J Nat Prod, 1999).

What is called EC50 is the concentration giving half of the maximal effect.

A short description of test [1]: Induction of DNA strand-scission activity assessed as relaxation of supercoiled DNA at 2.5 ug/ml. Details: scale not given: the % may be the effect or the level left.
For test [2], the system named is KB. In words: Cytotoxicity against human KB cells. Format: functional, cell-based.

SMILES strings stand for the structures. Converted amounts (≈) assume the structure as drawn. The source made the active and inactive calls. The rule behind the calls is not given here.

With `CC(C)=CCC/C(C)=C/Cc1cc(O)c(O)cc1-c1cc(O)c(CC=C(C)C)c(O)c1` [CLUSIPARALICOLINE A], the Activity in test [1] was 77%. The molecule further registered a concentration for a half-maximal effect (EC50) in test [2] of 3.8 µg/mL (≈ 8.99 µM).
Take `CC1(C)C=Cc2c(O)cc(-c3ccc(O)cc3)cc2O1` [CLUSIPARALICOLINE C]: the outcome in test [1] was inactive. Also, the EC50 in test [2] came out at 5.3 µg/mL (≈ 19.8 µM).
In the same order, the values of `CC(C)=CCC/C(C)=C/Cc1cc(O)c(O)cc1-c1cc(O)c2c(c1)OC(C)(C)C=C2` [CLUSIPARALICOLINE B] are 65% and 4.5 µg/mL (≈ 10.7 µM).
